ChEMBL document CHEMBL1156695, “The novel primaquine derivatives of N-alkyl, cycloalkyl or aryl urea: synthesis, cytostatic and antiviral activity evaluations” (Eur J Med Chem, 2008)
The source made the active and inactive calls. No cut-off for these calls is given here.

The compounds below were run on Vaccinia virus (assay: Antiviral activity against vaccinia virus infected in HEL cells assessed as reduction of virus-induced cytopathogenicity). Conditions: Orthopoxvirus vaccinia.
Type: functional, organism-based
For `COc1cc(NC(C)CCCNC(=O)n2nnc3ccccc32)c2ncccc2c1` (stereo not given) [PRIMAQUINE BENZOTRIAZOLIDE], the Activity was “inactive”.
With `COc1cc(NC(C)CCCNC(=O)NCc2ccccc2)c2ncccc2c1` (stereo not given) the Activity was “inactive”.
`COc1cc(NC(C)CCCNC(=O)NC2CCCCC2)c2ncccc2c1` (stereo not given) was tested, and the Activity was “inactive”.
For `COc1cc(NC(C)CCCNC(=O)NCC2CCCCC2)c2ncccc2c1` (stereo not given), the Activity was “inactive”.
`COc1cc(NC(C)CCCNC(=O)NCc2ccncc2)c2ncccc2c1` (stereo not given) was tested, and the Activity was “inactive”.
In the case of `CCN(CC)C(=O)NCCCC(C)Nc1cc(OC)cc2cccnc12` (stereo not given), the Activity is reported as “inactive”.
For `COc1cc(NC(C)CCCNC(=O)NCCc2ccccc2)c2ncccc2c1` (stereo not given), the Activity was “inactive”.
With `COc1cc(NC(C)CCCNC(=O)NC(c2ccccc2)c2ccccc2)c2ncccc2c1` (stereo not given) the Activity was “inactive”.
In the case of `COc1cc(NC(C)CCCNC(=O)N(C2CCCCC2)C2CCCCC2)c2ncccc2c1` (stereo not given), the Activity is reported as “inactive”.
`COc1cc(NC(C)CCCNC(=O)NC2CCCC2)c2ncccc2c1` (stereo not given) was tested, and the Activity was “inactive”.
